“And” between values parts separate entries of the source, which are not always exact repeats. Equal entries are not always repeated. “Also recorded” adds a separate entry of the source.
Columns and labels:
[1] = tested on: embryofoetal development and survival; design: method as in SCART protocol 7.3.1; details: at dose levels that do not induce maternal toxicity in mice; ref SCART protocol 7.3.1; cited from earlier work
Tie-2 = test: Serum angiogenic marker ELISA; assay type: in vivo, human; details: end of cycles 1, 2, 4 and 6 vs pre-dose cycle 1 day 1; any dose
Experimental: (§1) Pharmacodynamic measures were assessed by percentage changes in serum angiogenic markers and correlated with tumour response. The baseline used was that measured at cycle visit 1 day 1 pre-selumetinib treatment. Analysis of longitudinal data was performed using a mixed effects repeated measured regression, with a trend line and 90% CI derived using the fixed effect estimates from the model.
(§2) Circulating angiogenic biomarkers on cycle 1 day 1 pre-treatment, cycle 2 day 1, cycle 3 day 1, cycle 5 day 1 and end of cycle 6 (all ±1 day except cycle 1 day 1 pre-treatment).
(§3) HIV-1 viral load and CD4 counts were measured as per standard of care at hospital sites. To measure the concentration of angiogenesis markers, 8.5 ml blood was collected in BD vacutainer no-additive serum tubes. Samples were kept at room temperature for 30 minutes before centrifugation at 2000 g for 20 minutes at room temperature. Serum samples were then stored at -80 °C prior to analysis. Serum Ang-1, Ang-2 and TIE levels were assessed using commercial ELISAs (Thermo Fisher Scientifc hAng-1 (EHANGPT1), R&D DuoSet Ang-2 (DY623), eBioscience hTIE2 (BMS2042)), according to manufacturer instructions at laboratories at the University of Sheffield.

Ang-1 = test: Serum angiogenic marker ELISA; assay type: in vivo, human; details: end of cycles 1, 2, 4 and 6 vs pre-dose cycle 1 day 1; any dose
Experimental: as §1, §2, §3

Ang-2 = test: Serum angiogenic marker ELISA; assay type: in vivo, human
Experimental: as §1, §2, §3

[2] = tested on: non-small cell lung cancer; design: method as in SCART protocol 7.3.1; details: combination arm; ref SCART protocol 7.3.1; cited from earlier work
[3] = tested on: patients with HIV-associated KS; test: Phase I 3 + 3 dose escalation: dose limiting toxicity, MTD/RP2D; assay type: in vivo, human; details: for occurrence of DLT: cycle 1
Experimental: The trial used a standard 3 + 3 rule-based dose escalation algorithm with four pre-defined dose levels. […] A dose of 75 mg once daily (od) provided a dose level below the starting dose should de-escalation be required.
The aim of the phase I component of the trial was to determine the maximum tolerated dose (MTD) of selumetinib in combination with ART, which was defined as the highest dose producing one or fewer DLT in six patients. This dose was defined as the recommended phase II dose (RP2D) for the subsequent phase II component of the trial. Patients recruited to phase I who received the RP2D as their initial dose were included in the phase II population for response analysis. Having completed six cycles of treatment, patients who responded to treatment were permitted to continue selumetinib with ART at the discretion of the treating physician. Patients concurrently received best supportive therapy according to institutional guidelines.
The occurrence of DLTs was used to evaluate the safety of each dose level and thereby determine the MTD which defined the RP2D.
• Haematological. • Absolute neutrophil count (ANC) < 1.0 × 10^9/L. • Febrile neutropenia (ANC < 1.0 × 10^9/L, fever ≥ 38 °C). • Platelets < 50 × 10^9/L. • Bleeding thought to be due to thrombocytopenia. • Non-haematological. • Diarrhoea ≥ grade 3 despite optimal loperamide use. • Rash ≥ grade 3. • Any grade 2 toxicity unacceptable to the patient that required a dose reduction. • Missing > 30% of treatment doses for toxicity reasons. • Any other grade 3 or 4 effects thought to be treatment related. • HIV control. • Clinically necessary change in ART drug levels due to detrimental alteration in HIV viral load and/or CD4 cell count.

[4] = tested on: patients with advanced cancer; design: method as in Banerji, et al.; details: ref Banerji, et al., cited from earlier work
[5] = tested on: HIV-associated Kaposi sarcoma; test: Progression-free survival (Kaplan-Meier); assay type: in vivo, human
[6] = tested on: HIV-associated Kaposi sarcoma; test: Objective response by ACTG criteria; assay type: in vivo, human; details: for objective response (OR) rate: 90% CI
Experimental: For registered patients, pre-treatment evaluation included: physical examination, ophthalmologic exam, electrocardiogram (ECG), echocardiogram or multi-gated acquisition (MUGA) scan, chest x-ray and CT thorax, abdomen, and pelvis. Adverse events according to CTCAE version 4.0 [18] were recorded every three weeks. The burden of cutaneous disease was estimated by summed tumour area sizes (mm^2) from photographic image measurements and evaluated at baseline using ACTG criteria (Supplementary Appendix 3), with subsequent formal response assessments including clinical photographs taken every 6 weeks for 12 months or until disease progression. For patients with visceral or extensive disease, repeat CT scans at these time points were also performed.
OR rate was reported as the proportion of patients who achieved OR out of the total per-protocol population, with 90% confidence intervals (CI). Sensitivity analyses were also performed to compare this OR rate with ones that used the MTD population and the any-dose population as the denominator. The OR rate was also calculated for those who received at least six cycles of selumetinib.
The absence of any detectable residual disease, including tumour-associated oedema, persisting for at least 4 weeks.
A 50% or greater decrease in the number and/or size of previously existing lesions (skin, oral, measurable or evaluable visceral disease) lasting for at least 4 weeks without the appearance of new lesions or the appearance or worsening of tumour-associated oedema or effusions, […] of 25% or more in the product of bi-dimensional diameters of any indicator lesion.
Any response not meeting the criteria for progression or PR.

[7] = any dose/safety population, 16 patients
[8] = per protocol population, 12 patients

## Cn1cnc2c(F)c(Nc3ccc(Br)cc3Cl)c(C(=O)NOCCO)cc21 [selumetinib, 6-(4-Bromo-2-chloro-phenylamino)-7-fluro-3-methyl-3 H-benzoimidazole-5-carboxylic acid (2-hydroxy-ethoxy)-amide hydrogen sulphate]
[1]
  reproductive toxicology finding: adverse effects on embryofoetal
Tie-2
  change in circulating level of Tie-2: no significant changes; also recorded: no changes were observed
Ang-1
  change in circulating level of Ang-1: no significant changes
Ang-2; end of cycles 1, 2, 4 and 6 vs pre-dose cycle 1 day 1, any dose
  change in circulating level of Ang-2: no significant changes
Ang-2; on selumetinib treatment
  serum levels of Ang-2 on treatment compared to baseline (trend): tended to be lower
[2]
  febrile neutropenia CTCAE grade 3, patients: 6/44
  febrile neutropenia CTCAE grade 4, patients: 2/44
[3]; 75 mg bd, single event, possibly related, resolved with no sequelae
  nature of the DLT: asymptomatic concurrent increase in serum amylase and raised eosinophils, both grade 3
[3]; four patients starting 50 mg bd
  occurrence of DLT: None
[3]; selumetinib orally in combination with ART, highest dose producing one or fewer DLT in six patients
  maximum tolerated dose (MTD) / recommended phase II dose (RP2D): 75 mg bd
[3]; six phase I patients starting 75 mg bd
  occurrence of DLT: one and 1 out of 6
[4]; selumetinib monotherapy
  dose identified as both safe and tolerable: 75 mg bd
[4]; week 8, range -25% to +10%
  mean decrease in left ventricular ejection fraction (LVEF): -7.2%
[5]; MTD population, 15 patients
  3-month PFS (90% CI): 66%(42%,82%)
  6-month PFS (90% CI): 44% (22%, 64%)
  Median PFS in months (90% CI): 5.53 (2.53, 12.80) months
[5]; [7]
  3-month PFS (90% CI): 62%(39%,78%)
  6-month PFS (90% CI): 41% (21%, 61%)
  Median PFS in months (90% CI): 4.14 (2.53, 12.80) months
[5]; [8]
  3-month PFS (90% CI): 57%(31%,76%)
  Median PFS in months (90% CI): 3.42 (1.74, -^$) months
[6]; MTD population (sensitivity analysis)
  objective response (OR) rate: 6.7%
[6]; any-dose/safety population (sensitivity analysis)
  objective response (OR) rate: 6.3%
[6]; any-dose/safety population, 16 patients
  clinical benefit rate (CR, PR and SD): 75%
[6]; per-protocol population, 12 patients, 75 mg bd + ART
  objective response (OR) rate: 8.3%
[6]; the only patient with PR (deepened to CR after discontinuing at 3 cycles)
  response duration: 201 days
